Assay results from patent US6787534B2, “Sulfonamide-containing heterocyclic compounds” (Eisai Co., Ltd., priority 1999, dated 2004).
≈ marks a conversion by molar mass, not a printed value.

tested on: aorta pieces of rat (angiogenesis, capillaries formed around the aorta); test: Antiangiogenic effect: inhibition of capillary formation around rat aorta pieces incubated in collagen; format: cell-based, rat (Sprague-Dawley); settings: rat thoracic aorta pieces in Type I collagen gel, MCDB 131 medium; capillaries counted on 7th day from addition of test compound; three-fold dilutions from 10 μg/ml; read-out: IC50 (50% inhibiting concentration of angiogenesis)
Procedure: Pharmacological Experimental Example 1, Antiangiogenic Effect
The inhibition degree of angiogenesis which was observed when aorta pieces of rat were incubated in collagen was defined as an antiangiogenic effect. That is, the thoracic aorta excised from male rat of Sprague-Dawley strain (10-12 weeks age) was washed with a Hanks' solution (Gibco BRL, Gaithersburg, USA) so that fat tissues around there were removed minutely. The aorta was incised to prepare pieces of 2 mm square and they were allowed to stand in a 24-well plate holding the endothelial cells upside. Then, 500 μl of neutralized Type I collagen (Cell Matrix Type I-A; manufactured by Nitta Gelatin) were poured over each well and allowed to stand at room temperature for about 20 minutes in a clean bench to solidify the gel. After confirming that the gel was solidified, 500 μl of MCDB 131 medium (manufactured by Chlorella Kogyo) were added thereto followed by incubating in a CO2 incubator (5% CO2) at 37° C. On the next day, the culture medium was exchanged with 500 μl of MCDB 131 medium containing the test compound and the incubation was continued. After three days, the medium was again exchanged with 500 μl of MCDB 131 medium containing the test compound and, at the stage of the 7th day from the initiation of addition of the test compound, numbers of capillaries formed around the aorta were counted under a microscope. The solution containing the test compound was prepared in a three-fold dilution system where 10 μg/ml was the highest concentration.
Inhibiting rate was calculated from the following formula and 50% inhibiting concentration (IC50) for each test compound was determined.
Inhibiting Rate (%)=(C−T)/Cx100
C: Numbers of capillaries when no compound was added
T: Numbers of capillaries when a compound was added Table 1

| SMILES | IC50 [µg/mL] |
| --- | --- |
| N#Cc1ccc(S(=O)(=O)Nc2ccc3c(Cl)nccc3c2)cc1 [Example 61, 1-Chloro-6-(4-cyanobenzenesulfonylamino)isoquinoline] | 0.3 (≈ 0.873 µM) |
| N#Cc1ccc(S(=O)(=O)Nc2ccc3c(Cl)cccc3n2)cc1 [Example 24, 4-Cyano-N-(5-chloroquinolin-2-yl)-benzenesulfonamide] | 0.49 (≈ 1.43 µM) |
| Cc1cncc(S(=O)(=O)Nc2ccc3c(Br)cccc3n2)c1 [Example 2, N-(5-Bromoquinolin-2-yl)-5-methyl-3-pyridinesulfonamide] | 0.74 (≈ 1.96 µM) |
| CCNS(=O)(=O)c1ccc(S(=O)(=O)Nc2cnc3c(Br)cccc3c2)cc1 [Example 6, N-(8-Bromoquinolin-3-yl)-4-(N-ethylsulfamoyl)benzenesulfonamide] | 0.12 (≈ 0.255 µM) |
| O=S(=O)(Nc1cnc2c(Br)cccc2c1)c1ccc2c(c1)CCC2 [Example 11, N-(8-Bromoquinolin-3-yl)-5-indanesulfonamide] | 0.04 (≈ 0.0992 µM) |
| COc1nccc2cc(NS(=O)(=O)c3ccc(-c4nccs4)cc3)ccc12 [Example 77, 1-Methoxy-6-(4-thiazol-2-ylbenzenesulfonylamino)isoquinoline] | 0.39 (≈ 0.981 µM) |
| COc1nccc2cc(NS(=O)(=O)c3ccc(N)nc3)ccc12 [Example 69, 6-(2-Aminopyridin-5-ylsulfonylamino)-1-methoxyisoquinoline] | 0.15 (≈ 0.454 µM) |
| CCc1cncc2ccc(NS(=O)(=O)c3ccc(Cl)cc3)cc12 [Example 81] | 0.85 (≈ 2.45 µM) |
| O=S1(=O)CCCc2cc(S(=O)(=O)Nc3cnc4c(Br)cccc4c3)ccc21 [Example 50, N-(8-Bromoquinolin-3-yl) -1,1-dioxide-6-yl-sulfonamide] | 0.31 (≈ 0.663 µM) |
| O=S(=O)(Nc1cnc2c(Br)cccc2c1)c1cccnc1 [Example 1, N-(8-Bromoquinolin-3-yl)-3-pyridinesulfonamide] | 0.49 (≈ 1.35 µM) |
| O=S(=O)(Nc1cnc2c(Br)cccc2c1)c1ccc2c(c1)SCCO2 [Example 47, N-(8-Bromoquinolin-3-yl) -4-oxa-7-thiochromansulfonamide] | 0.09 (≈ 0.206 µM) |
| CCNS(=O)(=O)c1ccc(S(=O)(=O)Nc2ccc3c(Br)cccc3n2)cc1 [Example 27, N-(5-Bromoquinolin-2-yl)-4-(N-ethylsulfamoyl)benzenesulfonamide] | 0.08 (≈ 0.17 µM) |
| N#Cc1ccc(S(=O)(=O)Nc2cnc3c(C(F)(F)F)cccc3c2)cc1 [Example 38, N-(8-Trifluoromethylquinolin-3-yl)-4-cyanobenzenesulfonmide] | 0.15 (≈ 0.398 µM) |
| N#Cc1nccc2cc(NS(=O)(=O)c3ccc(Cl)cc3)ccc12 [Example 84, 6-(4-Chlorobenzenesulfonylamino)-1-cyanoisoquinoline] | 0.14 (≈ 0.407 µM) |
| N#Cc1ccc(S(=O)(=O)Nc2cnc3c(Br)cccc3c2)cc1 [Example 4, N-(8-Bromoquinolin-3-yl)-4-cyanobenzenesulfonamide] | 0.09 (≈ 0.232 µM) |
| O=c1cc(C(F)(F)F)c2ccc(NS(=O)(=O)c3ccc(Cl)cc3)cc2o1 [Example 92, N-(4-Trifluoromethylcoumarin-7-yl)-4-chlorobenzenesulfonamide] | 0.2 (≈ 0.495 µM) |
| C=Cc1cccc2nc(NS(=O)(=O)c3cccnc3)ccc12 [Example 91, N-(5-Vinylquinolin-2-yl)-3-pyridinesulfonamide] | 0.33 (≈ 1.06 µM) |
| CCc1nccc2cc(NS(=O)(=O)c3ccc(Cl)cc3)ccc12 [Example 80, 6-(4-Chlorobenzenesulfonylamino)-1-ethylisoquinoline] | 0.2 (≈ 0.577 µM) |
| O=S(=O)(Nc1cnc2c(I)cccc2c1)c1cncc2ccccc12 [Example 15, N-(8-Iodoquinolin-3-yl)-4-isoquinolinesulfonamide] | 0.87 (≈ 1.89 µM) |
| CC(=O)NCCc1ccc(S(=O)(=O)Nc2cnc3c(Br)cccc3c2)cc1 [Example 48, N-(8-Bromoquinolin-3-yl)-4-(2-acetamideethyl)benzenesulfonamide] | 0.35 (≈ 0.781 µM) |
| COc1ccc(S(=O)(=O)Nc2cnc3c(Br)cccc3c2)nn1 [Example 53] | 0.53 (≈ 1.34 µM) |
| O=S(=O)(Nc1ccc2c(Br)cncc2c1)c1ccc(Cl)nc1 [Example 59, N-(4-Bromoisoquinolin-7-yl)-6-chloro-3-pyridinesulfonamide] | 0.2 (≈ 0.502 µM) |
